One data set deals with male ob/ob mice. Nature of the data set: Hypoglycemic action in ob/ob mice, oral administration. Format: in vivo. Conditions: Mus musculus, fasting, 3 hr after administration, relative to control group, read-out: Decrease in blood glucose level (%) 3 hr; for inhibition in vivo at 1 mg/kg: dose 1 mg/kg oral; for inhibition in vivo at 3 mg/kg: dose 3 mg/kg oral. The method, then: A 0.5% methyl cellulose suspension of the test compound was orally administered to male ob/ob mice (6 to 9 weeks old) grouped based on blood glucose level. A 0.5% methyl cellulose solution alone was administered to a control group.
The blood was drawn from the orbital vein with anesthesia at 3 hours after the administration. The blood was drawn under fasting by removing the feed immediately before test compound administration. The blood thus drawn was separated by centrifugation and the blood glucose level was measured from the obtained plasma according to the hexokinase method (glucose measure kit). For evaluation, decrease in the blood glucose level of the test compound administration group relative to the control group was shown in percentage.

For data set [1], the target named is T1, recombinant human protein tyrosine phosphatase 1B (Homo sapiens, UniProt P18031).
T1 construct: purchased UBI
T1 sequence (P18031 1-435): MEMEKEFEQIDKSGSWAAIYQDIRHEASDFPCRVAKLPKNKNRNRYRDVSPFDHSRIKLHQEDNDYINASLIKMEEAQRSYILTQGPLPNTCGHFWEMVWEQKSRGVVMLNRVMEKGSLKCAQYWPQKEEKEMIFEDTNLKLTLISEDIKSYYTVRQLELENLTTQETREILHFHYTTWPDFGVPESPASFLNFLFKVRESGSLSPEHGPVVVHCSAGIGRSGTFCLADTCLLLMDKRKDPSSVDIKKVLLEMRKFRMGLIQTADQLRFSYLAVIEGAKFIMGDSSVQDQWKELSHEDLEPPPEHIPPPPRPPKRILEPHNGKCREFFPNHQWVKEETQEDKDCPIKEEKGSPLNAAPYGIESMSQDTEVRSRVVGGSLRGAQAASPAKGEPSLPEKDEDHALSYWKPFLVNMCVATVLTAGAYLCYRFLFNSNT
Nature of the data set: Protein tyrosine phosphatase 1B inhibitory action (malachite green, phosphorylated insulin receptor peptide substrate). Format: biochemical. Conditions: recombinant human PTP1B, 60 min room temperature, absorbance at 650 nm. The method, then:
Preparation of Assay Buffer:
50 mM Tris-HCl buffer (pH 7.5), and 50 mM NaCl and 3 mM dithiothreitol (DTT) were prepared.
Respective 10 mM DMSO solutions of 0.1, 0.3, 1, 3 and 10 μM test compounds were diluted with the above-mentioned assay buffer so that the final dimethyl sulfoxide (DMSO) concentration would be not more than 1%. As a control, an assay buffer was used.
Preparation of Substrate:
A synthetic peptide consisting of 12 amino acids corresponding to 1142nd–1153rd of insulin receptor sequence, wherein three tyrosines therein had been phosphorylated, was diluted with the above-mentioned assay buffer to 80 μM.
A recombinant human protein tyrosine phosphatase 1B (manufactured by UBI) was diluted with the above-mentioned assay buffer (1.2 ng/25 μl).
A sample (10 μl) and a substrate (25 μl) prepared as mentioned above were successively added to a 96 well plate, and an enzyme (25 μl) prepared as mentioned above was added and mixed. After incubation at room temperature for 60 min., malachite green (120 μl, Biomol), which is a phosphorus color fixing agent, was added, and the mixture was further incubated at room temperature for 20 min. to allow color development. The absorbance at 650 nm was measured on a plate reader, and the protein tyrosine phosphatase 1B inhibitory action of the test compound was evaluated.

For the next data set, the system named is db/db mice. Nature of the data set: Blood lipid lowering action in db/db mice, oral administration once a day for 14 days. Conditions: non-fasting; for Plasma triglyceride concentration (mg/dL) Day 7: Day 7 (control group 508); for Plasma triglyceride concentration (mg/dL) Day 14: Day 14 (control group 622). Format: in vivo. The method, then:
A 0.5% methyl cellulose suspension of the test compound was orally administered to 7-week-old db/db mice once a day for 14 days. The 0.5% methyl cellulose solution alone was administered to the control group.
The blood was drawn from the orbital vein with light ether anesthesia before test compound administration on day 7 day 14 under non-fasting condition. The blood thus drawn was separated by centrifugation and the plasma triglyceride concentration was measured from the obtained plasma according to the enzyme method (triglyceride measure kit).

From patent US7163952B2, “Azole compound and medicinal use thereof” (Japan Tobacco Inc., priority 2001, dated 2007) come the findings set out here.

As a reminder, the IC50 is the concentration at which inhibition is half-maximal. In the case of `CN(Cc1ccc(C(=O)O)cc1)c1nc(-c2ccc(OCc3ccc(C4CCCCC4)cc3)cc2)cs1` [Example 2, potassium 4-(N-(4-(4-(4-cyclohexylbenzyloxy)phenyl)-2-thiazolyl)-N-methylaminomethyl)benzoate], in the data set with male ob/ob mice, the inhibition in vivo at 1 mg/kg was 37% and the inhibition in vivo at 3 mg/kg was determined as 47%. For the same compound, the IC50 in data set [1] was determined as 0.22 µM.
Regarding `CN(c1ccc(C(=O)O)cc1)c1nc(-c2ccc(NCc3ccc(C4CCCCC4)cc3)cc2)cs1` [Example 3, 4-(N-(4-(4-(4-cyclohexylbenzylamino)phenyl)-2-thiazolyl)-N-methylamino)benzoic acid], in the data set on male ob/ob mice, the inhibition in vivo at 1 mg/kg came to 27% and the inhibition in vivo at 3 mg/kg is 35%. Further, the IC50 in data set [1] was found to be 0.5 µM.
By melting point is commonly meant the temperature of the solid-liquid transition. In the case of `CN(Cc1ccc(C2CCCCC2)cc1)c1ccc(-c2csc(N(C)Cc3ccc(C(=O)[O-])cc3)n2)cc1.[Na+]` [Example 102, sodium 4-(N-(4-(4-(N-(4-cyclohexylbenzyl)-N-methylamino)phenyl)-2-thiazolyl)-N-methylaminomethyl)benzoate], the melting point stood at 240 °C. In the data set on db/db mice (dose 10 mg/kg oral once a day), the “Plasma triglyceride concentration (mg/dL) Day 7” value turned out to be 277 mg/dL and the “Plasma triglyceride concentration (mg/dL) Day 14” value was 349 mg/dL. In the data set with db/db mice (dose 30 mg/kg oral once a day), the “Plasma triglyceride concentration (mg/dL) Day 7” value amounted to 250 mg/dL and the “Plasma triglyceride concentration (mg/dL) Day 14” value was 307 mg/dL.
For the compound `CN(Cc1ccc(C(=O)O)cc1)c1nc(-c2ccc(NCc3ccc(C4CCCCC4)cc3)cc2)cs1` [Example 115, 4-((N-(4-(4-(4-cyclohexylbenzylamino)phenyl)-2-thiazolyl)-N-methylamino)methyl)benzoic acid], the melting point was 184 °C (dec.). For the same compound, the inhibition in vivo at 3 mg/kg with male ob/ob mice came to 34%. In addition, the half-inhibitory concentration (IC50) in data set [1] is 0.48 µM.
The corresponding values for `CN(Cc1ccc([C@H]2CC[C@H](O)CC2)cc1)c1ccc(-c2csc(N(C)Cc3ccc(C(=O)O)cc3)n2)cc1` [Example 196, trans-4-((N-(4-(4-(N-(4-(4-hydroxycyclohexyl)benzyl)-N-methylamino)phenyl)-2-thiazolyl)-N-methylamino)methyl)benzoic acid] are 194 to 196 °C, -8% and 0.83 µM.
Turning to `CN(Cc1ccc(C2CCC(Cl)(Cl)CC2)cc1)c1ccc(-c2csc(N(C)Cc3ccc(C(=O)O)cc3)n2)cc1` [Example 208, 4-((N-(4-(4-(N-(4-(4,4-dichlorocyclohexyl)benzyl)-N-methylamino)phenyl)-2-thiazolyl)-N-methylamino)methyl)benzoic acid], the melting point is 210 to 213 °C. Further, the inhibition in vivo at 3 mg/kg in the data set with male ob/ob mice was 21%. For the same compound, the half-maximal inhibitory concentration (IC50) in data set [1] stood at 0.11 µM.
For the compound `CN(Cc1ccc(C2CCC(F)(F)CC2)cc1)c1ccc(-c2csc(N(C)Cc3ccc(C(=O)O)cc3)n2)cc1` [Example 209, 4-((N-(4-(4-(N-(4-(4,4-difluorocyclohexyl)benzyl)-N-methylamino)phenyl)-2-thiazolyl)-N-methylamino)methyl)benzoic acid], the melting point was 190 to 193 °C. Moreover, the inhibition in vivo at 3 mg/kg with male ob/ob mice turned out to be 20%. Further, the half-maximal inhibitory concentration (IC50) in data set [1] stood at 0.49 µM.
Compound `CN(Cc1ccc(C2CCC(C)(C)CC2)cc1)c1ccc(-c2csc(N(C)Cc3ccc(C(=O)O)cc3)n2)cc1` [Example 215, 4-((N-(4-(4-(N-(4-(4,4-dimethylcyclohexyl)benzyl)-N-methylamino)phenyl)-2-thiazolyl)-N-methylamino)methyl)benzoic acid] gave a melting point of 155 to 158 °C. In addition, the inhibition in vivo at 0.3 mg/kg in the data set on male ob/ob mice (dose 0.3 mg/kg oral) is -9%. Besides, in the data set with male ob/ob mice, the inhibition in vivo at 1 mg/kg amounted to 32% and the inhibition in vivo at 3 mg/kg was 39%. Also, the IC50 in data set [1] is 0.11 µM.
Regarding `O=C(O)c1ccc(CN(CC2CCCCC2)c2nc(-c3nc4ccc(OCc5ccc(Cl)c(Cl)c5)cc4o3)cs2)cc1` [Example 217, 4-((N-cyclohexylmethyl-N-(4-(6-(3,4-dichlorobenzyloxy)-2-benzooxazolyl)-2-thiazolyl)amino)methyl)benzoic acid], the melting point lay in the range of 188 to 190 °C. Besides, the inhibition in vivo at 3 mg/kg with male ob/ob mice was determined as 20%. For the same compound, the IC50 in data set [1] stood at 0.26 µM.
The matching figures for `CC1CCC(c2ccc(CN(C)c3ccc(-c4csc(N(C)Cc5ccc(C(=O)O)cc5)n4)cc3)cc2)CC1` (stereo not shown) [Example 218, 4-((N-methyl-N-(4-(4-(N-methyl-N-(4-(4-methylcyclohexyl)benzyl)amino)phenyl)-2-thiazolyl)amino)methyl)benzoic acid]: 185 to 191 °C, 27% and 0.15 µM.
For `CCCC(CCC)c1ccc(CN(C)c2ccc(-c3csc(N(C)Cc4ccc(C(=O)O)cc4)n3)cc2)cc1` [Example 230, 4-((N-methyl-N-(4-(4-(N-methyl-N-(4-(1-propylbutyl)benzyl)amino)phenyl)-2-thiazolyl)amino)methyl)benzoic acid], the melting point is 114 to 115 °C. In addition, the inhibition in vivo at 3 mg/kg with male ob/ob mice came out at 40%. Besides, in data set [1], the half-maximal inhibitory concentration (IC50) amounted to 0.15 µM.
